Measured values published in US20070128217A1 (priority 2003, published 2007).

What was measured:
[1] = test system: control sera (pooled serum of ten healthy LUMC hospital workers; commercial negative donor pooled serum from the Dutch bloodbank); type: binding, human; parameters: Binding of Control serum LUMC to linear peptides / Binding of Control serum Blood-bank to linear peptides / Binding of Control serum LUMC to looped peptides / Binding of Control Serum Blood-Bank to Looped peptides / Binding of Control serum LUMC to linear peptides of the protein M of SARS-CoV Urbani / Binding of Control serum Blood-bank to linear peptides of the protein M of SARS-CoV Urbani / Binding of Control serum LUMC to looped peptides of the protein M of SARS-CoV Urbani / Binding of Control Serum Blood-Bank to Looped peptides of the protein M of SARS-CoV Urbani: unit not given here
[2] = test system: antibodies in sera from SARS patients (sera 1a, 1b, 2, 6, 37, 62, London, SARS-yellow, SARS-green); type: binding, human; parameters: Binding of serum 6 to linear peptides of protein X1 of SARS-CoV Urbani / Binding of serum 37 to linear peptides of protein X1 of SARS-CoV Urbani / Binding of serum 6 to looped/cyclic peptide (PEPSCAN-ELISA) / Binding of serum 37 to looped/cyclic peptide (PEPSCAN-ELISA) / Binding of serum 37 to looped/cyclic peptides of protein X1 of SARS-CoV Urbani / Binding of serum 6 to linear peptides of protein X2 / Binding of serum 37 to linear peptides of protein X2 / Binding of serum 37 to looped/cyclic peptides of protein X2 of SARS-CoV Urbani / Binding of serum 6 to linear peptides of protein M of SARS-CoV Urbani / Binding of serum 37 to linear peptides of protein M of SARS-CoV Urbani / Binding of serum 6 to looped/cyclic peptides of protein M of SARS-CoV Urbani / Binding of serum 37 to looped/cyclic peptides of protein M of SARS-CoV Urbani / Binding of serum 6 to linear peptides of protein X3 of SARS-CoV Urbani / Binding of serum 37 to linear peptides of protein X3 of SARS-CoV Urbani / Binding of serum 37 to looped/cyclic peptides of protein X3 of SARS-CoV Urbani / Binding of serum 6 to linear peptides of protein X4 of SARS-CoV Urbani / Binding of serum 37 to linear peptides of protein X4 of SARS-CoV Urbani / Binding of serum 37 to looped/cyclic peptides of protein X4 of SARS-CoV Urbani / Binding of serum 6 to linear peptides of protein X5 of SARS-CoV Urbani / Binding of serum 37 to linear peptides of protein X5 of SARS-CoV Urbani / Binding of serum 37 to looped/cyclic peptides of protein X5 of SARS-CoV Urbani / Binding of serum 6 to linear peptides of protein N of SARS-CoV Urbani / Binding of serum 37 to linear peptides of protein N of SARS-CoV Urbani / Binding of serum 6 to linear peptide (PEPSCAN-ELISA) / Binding of serum 1a to looped/cyclic peptides of protein N of SARS-CoV Urbani / Binding of serum 1b to looped/cyclic peptides of protein N of SARS-CoV Urbani / Binding of serum 2 to looped/cyclic peptides of protein N of SARS-CoV Urbani / Binding of serum 6 to looped/cyclic peptides of protein N of SARS-CoV Urbani / Binding of serum 37 to looped/cyclic peptides of protein N of SARS-CoV Urbani / Binding of serum 62 to looped/cyclic peptides of protein N of SARS-CoV Urbani / Binding of serum London to looped/cyclic peptides of protein N of SARS-CoV Urbani / Binding of serum SARS-green to looped/cyclic peptides of protein N of SARS-CoV Urbani: unit not given here
[3] = test system: rabbit serum obtained by immunizing a rabbit with the SARS-CoV strain Frankfurt 1; type: binding; parameters: Binding of a rabbit serum to linear peptides / Binding of a rabbit serum to looped peptides / Rabbit serum linear peptides / Rabbit serum looped peptides / Binding of a rabbit serum to linear peptides of protein N of SARS-CoV Urbani (Rabbit serum linear peptides) / Binding of a rabbit serum to looped/cyclic peptides of protein N of SARS-CoV Urbani (Rabbit serum looped peptides): unit not given here

Row | Sequence | Binding of Control Serum Blood-Bank to Looped peptides [1] | Binding of Control serum Blood-bank to linear peptides [1] | Binding of Control serum LUMC to linear peptides [1] | Binding of Control serum LUMC to looped peptides [1] | Binding of serum 1a to linear peptides of protein X1 of SARS-CoV Urbani [2] | Binding of serum 1a to looped/cyclic peptides of protein X1 of SARS-CoV Urbani [2] | Binding of serum 1b to linear peptides of protein X1 of SARS-CoV Urbani [2] | Binding of serum 1b to looped/cyclic peptides of protein X1 of SARS-CoV Urbani [2] | Binding of serum 2 to linear peptides of protein X1 of SARS-CoV Urbani [2] | Binding of serum 2 to looped/cyclic peptides of protein X1 of SARS-CoV Urbani [2] | Binding of serum 6 to linear peptides of protein X1 of SARS-CoV Urbani [2] | Binding of serum 6 to looped/cyclic peptides of protein X1 of SARS-CoV Urbani [2] | Binding of serum 37 to linear peptides of protein X1 of SARS-CoV Urbani [2] | Binding of serum 37 to looped/cyclic peptides of protein X1 of SARS-CoV Urbani [2] | Binding of serum 62 to linear peptides of protein X1 of SARS-CoV Urbani [2] | Binding of serum London to linear peptides of protein X1 of SARS-CoV Urbani [2] | Binding of serum SARS-green to linear peptides of protein X1 of SARS-CoV Urbani [2] | Binding of serum SARS-yellow to linear peptides of protein X1 of SARS-CoV Urbani [2] | Binding of a rabbit serum to linear peptides [3] | Binding of a rabbit serum to looped peptides [3] | other results
1 | SVSPKLFIRQEEVQQ | 0.4 | 0.6 | 0.3 | 0.7 | – | – | – | – | – | – | – | – | – | – | – | – | – | – | – | – | Binding of serum 1a to linear peptides of protein X4 of SARS-CoV Urbani [2]: 0.7; Binding of serum 1a to looped/cyclic peptides of protein X4 of SARS-CoV Urbani [2]: 0.7; Binding of serum 1b to linear peptides of protein X4 of SARS-CoV Urbani [2]: 0.5; Binding of serum 1b to looped/cyclic peptides of protein X4 of SARS-CoV Urbani [2]: 0.6; Binding of serum 2 to linear peptides of protein X4 of SARS-CoV Urbani [2]: 0.3; Binding of serum 2 to looped/cyclic peptides of protein X4 of SARS-CoV Urbani [2]: 0.6; Binding of serum 6 to linear peptides of protein X4 of SARS-CoV Urbani [2]: 0.5; Binding of serum 6 to looped/cyclic peptides of protein X4 of SARS-CoV Urbani [2]: 0.4; Binding of serum 37 to linear peptides of protein X4 of SARS-CoV Urbani [2]: 0.7; Binding of serum 37 to looped/cyclic peptides of protein X4 of SARS-CoV Urbani [2]: 0.7; Binding of serum 62 to linear peptides of protein X4 of SARS-CoV Urbani [2]: 0.7; Binding of serum 62 to looped/cyclic peptides of protein X4 of SARS-CoV Urbani [2]: 0.6; Binding of serum London to linear peptides of protein X4 of SARS-CoV Urbani [2]: 0.6; Binding of serum London to looped/cyclic peptides of protein X4 of SARS-CoV Urbani [2]: 0.3; Binding of serum SARS-green to linear peptides of protein X4 of SARS-CoV Urbani [2]: 0.4; Binding of serum SARS-green to looped/cyclic peptides of protein X4 of SARS-CoV Urbani [2]: 0.7; Binding of serum SARS-yellow to linear peptides of protein X4 of SARS-CoV Urbani [2]: 0.3; Binding of serum SARS-yellow to looped/cyclic peptides of protein X4 of SARS-CoV Urbani [2]: 0.4; Rabbit serum linear peptides [3]: 0.4; Rabbit serum looped peptides [3]: 0.3
2 | SVTDTIVVTEGDGIS | 0.3 | 0.4 | 0.4 | 0.3 | 0.6 | 0.3 | 0.5 | 0.2 | 0.4 | 0.1 | 0.4 | 0.1 | 0.5 | 0.3 | 0.5 | 0.2 | 0.1 | 0.4 | 0.1 | 0.4 | Binding of serum 62 to looped/cyclic peptides of protein X1 of SARS-CoV Urbani [2]: 0.3; Binding of serum London to looped/cyclic peptides of protein X1 of SARS-CoV Urbani [2]: 0.1; Binding of serum SARS-green to looped/cyclic peptides of protein X1 of SARS-CoV Urbani [2]: 0.2; Binding of serum SARS-yellow to looped/cyclic peptides of protein X1 of SARS-CoV Urbani [2]: 0.2
3 | TATIPLQASLPFGWL | 0.8 | 1.0 | 0.8 | 0.8 | 0.9 | – | 0.8 | – | 0.6 | – | 0.7 | – | 0.7 | – | 0.7 | 0.3 | 0.5 | 0.3 | 0.1 | 0.6 | Binding of serum 1a to looped/cyclic peptide (PEPSCAN-ELISA) [2]: 0.7; Binding of serum 1b to looped/cyclic peptide (PEPSCAN-ELISA) [2]: 0.6; Binding of serum 2 to looped/cyclic peptide (PEPSCAN-ELISA) [2]: 0.5; Binding of serum 6 to looped/cyclic peptide (PEPSCAN-ELISA) [2]: 0.5; Binding of serum 37 to looped/cyclic peptide (PEPSCAN-ELISA) [2]: 0.8; Binding of serum 62 to looped/cyclic peptide (PEPSCAN-ELISA) [2]: 0.8; Binding of serum London to looped/cyclic peptide (PEPSCAN-ELISA) [2]: 0.3; Binding of serum SARS-green to looped/cyclic peptide (PEPSCAN-ELISA) [2]: 0.5; Binding of serum SARS-yellow to looped/cyclic peptide (PEPSCAN-ELISA) [2]: 0.5
4 | TDTGIENATFFIFNK | 0.8 | 0.6 | 0.4 | 0.6 | 0.7 | 0.5 | 0.4 | 0.5 | 0.5 | 0.5 | 0.7 | 0.5 | 0.6 | 0.7 | 0.5 | 0.3 | 0.5 | 0.0 | 0.1 | 0.6 | Binding of serum 62 to looped/cyclic peptides of protein X1 of SARS-CoV Urbani [2]: 0.7; Binding of serum London to looped/cyclic peptides of protein X1 of SARS-CoV Urbani [2]: 0.3; Binding of serum SARS-green to looped/cyclic peptides of protein X1 of SARS-CoV Urbani [2]: 0.4; Binding of serum SARS-yellow to looped/cyclic peptides of protein X1 of SARS-CoV Urbani [2]: 0.5
